We go through two molecules from patent US20060160756A1, “Treatment and prevention of multi-drug resistance” (priority 2004, published 2006).

Broadly, the AUC is concentration integrated over time. High values mean more exposure, low ones less exposure. In general, Cmax refers to the highest concentration seen after dosing. Usually Tmax stands for the time at which the peak concentration occurs. A word on the t½: it is the time needed for the level to fall by half in the phase considered. Higher therefore signals slow loss.

Like-named read-outs stand apart in the source and are kept apart here. A value given as a limit tells only on which side of the number the result lay.

Data set [1] concerns K562/adriamycin-resistant cells. Put plainly: MTT assay: dofediquar effect on ADM cytotoxicity / growth of MDR cells. The conditions noted are these: for Growth rate (% of control): 2nd incubation (24 hr) without MS-209, MS-209 3 μM where present. Type of data set: cell-based. On the technique in general: Formazan colour is commonly taken as a measure of viable cells.
Data set [2] is described as follows: Pharmacokinetics of dofediquar after single oral administration to fasted healthy male volunteers. The settings on record: for AUC / Cmax / Tmax / t½: mean ± S.D. The class given is in vivo, healthy male Japanese adults. On the procedure:
The pharmacokinetic parameters of dofediquar (MS-209) are investigated in fasted healthy male Japanese adults. The study design is described in Table 2. The plasma concentrations of dofediquar after single oral administration of increasing doses from 100 to 1200 mg to fasted healthy male Japanese adults is illustrated in FIGS. 2 and 3.

A short description of data set [3]: Concentrations of dofediquar in plasma and tumor tissue after single oral administration in colon 26-bearing mice. The class given is in vivo. The conditions noted are these: for Concentration of MS-209, Plasma / Concentration of MS-209, Tumor: mean ± SD of N = 3.
Data set [4] has as its system drug-resistant cancer cell lines. Put plainly: In vitro studies using drug-resistant cancer cell lines (effective concentration). Type of data set: cell-based. On the procedure: The effective concentration of dofediquar of about 3 μM (ca. 2 μg/mL) indicated in in vitro studies using drug-resistant cancer cell lines, is achieved at doses of 300 mg or higher.
[5] abbreviates: 100 mg single oral dose, fasted.
The mark [6] stands for this setting: 300 mg single oral dose, fasted.
The mark [7] stands for this setting: 600 mg single oral dose, fasted.
Where [8] appears, read: 900 mg single oral dose, fasted.
The mark [9] stands for this setting: 1200 mg single oral dose, fasted.
[10] abbreviates: single oral doses 100 to 1200 mg.
[11] abbreviates: 0.5 h after single oral 200 mg/kg.
Setting [12] is: 1 h after single oral 200 mg/kg.
[13] abbreviates: 2 h after single oral 200 mg/kg.
The mark [14] stands for this setting: 5 h after single oral 200 mg/kg.
[15] abbreviates: 24 h after single oral 200 mg/kg.

For `COc1cccc2c1C(=O)c1c(O)c3c(c(O)c1C2=O)C[C@@](O)(C(=O)CO)C[C@@H]3O[C@H]1C[C@H](N)[C@H](O)[C@H](C)O1` [ADM, adriamycin], the “Growth rate (% of control)” value is reported as 93.4 % of control in data set [1] (ADM 100 ng/ml, 1st incubation 1 hr); 102 % of control in data set [1] (ADM 100 ng/ml, 1st incubation 3 hr); 92.0 % of control in data set [1] (ADM 100 ng/ml, 1st incubation 6 hr); 88.1 % of control in data set [1] (ADM 300 ng/ml, 1st incubation 1 hr); 100 % of control in data set [1] (ADM 300 ng/ml, 1st incubation 6 hr).

As for `O=C(C(c1ccccc1)c1ccccc1)N1CCN(CC(O)COc2cccc3ncccc23)CC1` (stereo not drawn) [dofediquar], the “Cell growth inhibition with vs without dofediquar during the 2nd incubation” value in data set [1] (co-treated with adriamycin (100-300 ng/ml) and dofediquar (3 μM), then 2nd incubation (24 hr) with dofediquar alone) is given as “slightly more inhibited”. The “Enhancement of ADM cytotoxicity” value in data set [1] (pretreated with 3 μM dofediquar for 24 hours, washed away, then ADM alone for 72 hours (FIG. 1)) is on record as “does not show an enhancement of ADM cytotoxicity”. Also, the AUC amounted to 720 ± 210 ng·h/mL in data set [2] (setting [5]); 7290 ± 2540 ng·h/mL in data set [2] (setting [6]); 32470 ± 5940 ng·h/mL in data set [2] (setting [7]); 62900 ± 9670 ng·h/mL in data set [2] (setting [8]); 105390 ± 20100 ng·h/mL in data set [2] (setting [9]). Also, the Cmax in data set [2] (setting [5]) turned out to be 470 ± 200 ng/mL; in data set [2] (setting [6]), 2700 ± 740 ng/mL; in data set [2] (setting [7]) it was 10110 ± 2140 ng/mL; in data set [2] (setting [8]), 14030 ± 2480 ng/mL; in data set [2] (setting [9]), 20990 ± 2150 ng/mL. Also, the Tmax in data set [2] (setting [5]) is reported as 1.04 ± 0.40 h; in data set [2] (setting [6]), 1.04 ± 0.40 h; in data set [2] (setting [7]) it was 0.75 ± 0.22 h; in data set [2] (setting [8]), 1.67 ± 0.68 h; in data set [2] (setting [9]) it was 1.00 ± 0.27 h. The t½ came out at 0.89 ± 0.37 h in data set [2] (setting [5]); 1.17 ± 0.25 h in data set [2] (setting [6]); 2.25 ± 0.47 h in data set [2] (setting [7]); 2.39 ± 0.37 h in data set [2] (setting [8]); 3.10 ± 0.31 h in data set [2] (setting [9]). Further, the Detection in plasma result in data set [2] (dose of 10 mg, single oral) is recorded as “not detected”; in data set [2] (dose of 30 mg, single oral), “detected in one of 6 subjects”. Besides, the “Manner of decline of plasma concentration after the peak” value in data set [2] (doses of 100 mg or higher, single oral) is “declines in a monophasic manner”. Further, the “Dose at which the effective concentration of about 3 μM (ca. 2 μg/mL) is achieved in plasma” value in data set [2] (single oral dose, fasted) is at least 300 mg. Besides, the “Dose dependence of Cmax and AUC” value in data set [2] (setting [10]) was “increase more steeply than expected from the dose increase”. Also, the “Dose dependence of Tmax” value in data set [2] (setting [10]) was “does not change”. The “Dose dependence of half-life” value in data set [2] (setting [10]) is “increases with increasing dose”. Besides, the “Concentration of MS-209, Plasma” value is 25600 ± 9300 ng/mL in data set [3] (setting [11]); 33000 ± 6300 ng/mL in data set [3] (setting [12]); 27300 ± 7000 ng/mL in data set [3] (setting [13]); 24600 ± 10000 ng/mL in data set [3] (setting [14]); 610 ± 410 ng/mL in data set [3] (setting [15]). The “Concentration of MS-209, Tumor” value is 15.9 ± 8.1 µg/g in data set [3] (setting [11]); 30.6 ± 7.5 µg/g in data set [3] (setting [12]); 28.0 ± 9.4 µg/g in data set [3] (setting [13]); 25.8 ± 10 µg/g in data set [3] (setting [14]); 0.52 ± 0.49 µg/g in data set [3] (setting [15]). Moreover, the AUC, Plasma in data set [3] (single oral 200 mg/kg) was 368000 ng·h/mL. Besides, the AUC, Tumor in data set [3] (single oral 200 mg/kg) amounted to 376 µg·h/g. The values for the Effective concentration entry in data set [4] and in data set [4] (same value as 3 μM) were “about 3 μM” and “ca. 2 μg/mL”, respectively.
